How the values were obtained:
[1] = Stability data at 25±2° C. and 60±5% relative humidity of amorphous and Form A of compound (1); format: physicochemical; conditions: for HPLC assay (%) of compound (1) with reference to the anhydrous and solvent free basis / IR identification / Potential impurity-HPLC (area %): 10-dehydro compound (1): 25±2° C.; for HPLC assay (%) of compound (1) with reference to the anhydrous and solvent free basis / IR identification / Potential impurity-HPLC (area %): 10-dehydro compound (1) / Specific optical rotation (°) (c = 1 ethanol, at 20° C.): 60±5% relative humidity; for Specific optical rotation (°) (c = 1 ethanol, at 20° C.): storage 25±2° C.
Procedure: Stability data at 25±2° C. and 60±5% relative humidity of amorphous and Form A of compound (1). The packaging was the same for both solid forms (Amber glass vial+polyethylene bag+vacuum sealed PET/Aluminum/PE multilayer bag).

[2] = ICH stability studies (chemical stability of the solid form); format: physicochemical; conditions: mainly an impurity stemming from oxidation of the 10-position of the baccatin core
Excerpt: Thus it is desirable to find a crystalline form of compound (1) which is chemically and thermodynamically stable. A method for preparing such solid form of compound (1) continually and constantly is also a prerequisite for the development of a robust manufacturing process.

[3] = T = 0, against the reference FTIR figure of the form
[4] = T = 0, amber glass vial + polyethylene bag + vacuum sealed PET/Aluminum/PE multilayer bag

| Compound | HPLC assay (%) of compound (1) with reference to the anhydrous and solvent free basis ([1]; 3 months) [%] | IR identification ([1]; 3 months) | Potential impurity-HPLC (area %): 10-dehydro compound (1) ([1]; 3 months) [% area %] | Specific optical rotation (°) (c = 1 ethanol, at 20° C.) ([1]; 3 months) | HPLC assay (%) of compound (1) with reference to the anhydrous and solvent free basis ([1]; 6 months) [%] | IR identification ([1]; 6 months) | Potential impurity-HPLC (area %): 10-dehydro compound (1) ([1]; 6 months) [% area %] | Specific optical rotation (°) (c = 1 ethanol, at 20° C.) ([1]; 6 months) | Potential impurity-HPLC (area %): 10-dehydro compound (1) ([1]; T = 0) [% area %] | IR identification [1, 3] | HPLC assay (%) of compound (1) with reference to the anhydrous and solvent free basis [1, 4] [%] | Specific optical rotation (°) (c = 1 ethanol, at 20° C.) ([1]; T = 0) | Chemical stability during ICH stability studies [2] | Oxidation of the 10-position of the baccatin core ([1]; solid form on storage) |
| --- | --- | --- | --- | --- | --- | --- | --- | --- | --- | --- | --- | --- | --- | --- |
| CCCCCC(=O)OC(C(=O)OC1CC2(O)C(OC(=O)c3ccccc3)C3C4(OC(C)=O)COC4CC(O)C3(C)C(=O)C(O)C(=C1C)C2(C)C)C(NC(=O)OC(C)(C)C)c1ccccc1 (centres unmarked) [Amourphous Form of compound (1), 13-[(N-tert-butoxycarbonyl)-2′-O-hexanoyl-3-phenylisoserinyl]-10-deacetylbaccatin III] | 99.0 | Complies | 0.36 | −46.3 | 98.9 | Complie | 0.53 | −46.0 | 0.29 | Complies with | 99.7 | −46.0 | problems of chemical stability |  |
| CCCCCC(=O)OC(C(=O)OC1CC2(O)C(OC(=O)c3ccccc3)C3C4(OC(C)=O)COC4CC(O)C3(C)C(=O)C(O)C(=C1C)C2(C)C)C(NC(=O)OC(C)(C)C)c1ccccc1 (centres unmarked) [Form A of compound (1), 13-[(N-tert-butoxycarbonyl)-2′-O-hexanoyl-3-phenylisoserinyl]-10-deacetylbaccatin III] | 99.0 | Complies | 0.29 | −46.3 | 99.1 | Complies | 0.29 | −46.3 | 0.29 | Complies with | 99.0 | −46.2 |  | prevented |
